What was measured:
CBP = molecular target: T1, CBP (Homo sapiens, UniProt Q92793); experiment: CBP degradation, HiBit technology in A549 CBP HiBit cells (24 h); assay type: cell-based; conditions: 24 hrs post treatment
T1 construct: host or cells: A549 CBP HiBit cells
How it was run: (§1)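 Luminescence after lytic HiBiT detection (10 min, room temperature) gave degradation potency and Dmax. Before that, knock-in A549 cells grown overnight in F-12K/10% HI-FBS were exposed to serially diluted compound at 37 °C, 5% CO2 for the assay time stated.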

p300 = molecular target: T2, p300 (Homo sapiens, UniProt Q09472); experiment: P300 degradation, HiBit technology in A549 P300 HiBit cells (2 h); assay type: cell-based; conditions: 2 hrs post treatment; for Dmax: A549, A549 P300 HiBit cells; for DC50: A549 P300 HiBit cells
T2 construct: host or cells: A549 P300 HiBit cells
How it was run: as §1

T1 sequence (Q92793 whole entry): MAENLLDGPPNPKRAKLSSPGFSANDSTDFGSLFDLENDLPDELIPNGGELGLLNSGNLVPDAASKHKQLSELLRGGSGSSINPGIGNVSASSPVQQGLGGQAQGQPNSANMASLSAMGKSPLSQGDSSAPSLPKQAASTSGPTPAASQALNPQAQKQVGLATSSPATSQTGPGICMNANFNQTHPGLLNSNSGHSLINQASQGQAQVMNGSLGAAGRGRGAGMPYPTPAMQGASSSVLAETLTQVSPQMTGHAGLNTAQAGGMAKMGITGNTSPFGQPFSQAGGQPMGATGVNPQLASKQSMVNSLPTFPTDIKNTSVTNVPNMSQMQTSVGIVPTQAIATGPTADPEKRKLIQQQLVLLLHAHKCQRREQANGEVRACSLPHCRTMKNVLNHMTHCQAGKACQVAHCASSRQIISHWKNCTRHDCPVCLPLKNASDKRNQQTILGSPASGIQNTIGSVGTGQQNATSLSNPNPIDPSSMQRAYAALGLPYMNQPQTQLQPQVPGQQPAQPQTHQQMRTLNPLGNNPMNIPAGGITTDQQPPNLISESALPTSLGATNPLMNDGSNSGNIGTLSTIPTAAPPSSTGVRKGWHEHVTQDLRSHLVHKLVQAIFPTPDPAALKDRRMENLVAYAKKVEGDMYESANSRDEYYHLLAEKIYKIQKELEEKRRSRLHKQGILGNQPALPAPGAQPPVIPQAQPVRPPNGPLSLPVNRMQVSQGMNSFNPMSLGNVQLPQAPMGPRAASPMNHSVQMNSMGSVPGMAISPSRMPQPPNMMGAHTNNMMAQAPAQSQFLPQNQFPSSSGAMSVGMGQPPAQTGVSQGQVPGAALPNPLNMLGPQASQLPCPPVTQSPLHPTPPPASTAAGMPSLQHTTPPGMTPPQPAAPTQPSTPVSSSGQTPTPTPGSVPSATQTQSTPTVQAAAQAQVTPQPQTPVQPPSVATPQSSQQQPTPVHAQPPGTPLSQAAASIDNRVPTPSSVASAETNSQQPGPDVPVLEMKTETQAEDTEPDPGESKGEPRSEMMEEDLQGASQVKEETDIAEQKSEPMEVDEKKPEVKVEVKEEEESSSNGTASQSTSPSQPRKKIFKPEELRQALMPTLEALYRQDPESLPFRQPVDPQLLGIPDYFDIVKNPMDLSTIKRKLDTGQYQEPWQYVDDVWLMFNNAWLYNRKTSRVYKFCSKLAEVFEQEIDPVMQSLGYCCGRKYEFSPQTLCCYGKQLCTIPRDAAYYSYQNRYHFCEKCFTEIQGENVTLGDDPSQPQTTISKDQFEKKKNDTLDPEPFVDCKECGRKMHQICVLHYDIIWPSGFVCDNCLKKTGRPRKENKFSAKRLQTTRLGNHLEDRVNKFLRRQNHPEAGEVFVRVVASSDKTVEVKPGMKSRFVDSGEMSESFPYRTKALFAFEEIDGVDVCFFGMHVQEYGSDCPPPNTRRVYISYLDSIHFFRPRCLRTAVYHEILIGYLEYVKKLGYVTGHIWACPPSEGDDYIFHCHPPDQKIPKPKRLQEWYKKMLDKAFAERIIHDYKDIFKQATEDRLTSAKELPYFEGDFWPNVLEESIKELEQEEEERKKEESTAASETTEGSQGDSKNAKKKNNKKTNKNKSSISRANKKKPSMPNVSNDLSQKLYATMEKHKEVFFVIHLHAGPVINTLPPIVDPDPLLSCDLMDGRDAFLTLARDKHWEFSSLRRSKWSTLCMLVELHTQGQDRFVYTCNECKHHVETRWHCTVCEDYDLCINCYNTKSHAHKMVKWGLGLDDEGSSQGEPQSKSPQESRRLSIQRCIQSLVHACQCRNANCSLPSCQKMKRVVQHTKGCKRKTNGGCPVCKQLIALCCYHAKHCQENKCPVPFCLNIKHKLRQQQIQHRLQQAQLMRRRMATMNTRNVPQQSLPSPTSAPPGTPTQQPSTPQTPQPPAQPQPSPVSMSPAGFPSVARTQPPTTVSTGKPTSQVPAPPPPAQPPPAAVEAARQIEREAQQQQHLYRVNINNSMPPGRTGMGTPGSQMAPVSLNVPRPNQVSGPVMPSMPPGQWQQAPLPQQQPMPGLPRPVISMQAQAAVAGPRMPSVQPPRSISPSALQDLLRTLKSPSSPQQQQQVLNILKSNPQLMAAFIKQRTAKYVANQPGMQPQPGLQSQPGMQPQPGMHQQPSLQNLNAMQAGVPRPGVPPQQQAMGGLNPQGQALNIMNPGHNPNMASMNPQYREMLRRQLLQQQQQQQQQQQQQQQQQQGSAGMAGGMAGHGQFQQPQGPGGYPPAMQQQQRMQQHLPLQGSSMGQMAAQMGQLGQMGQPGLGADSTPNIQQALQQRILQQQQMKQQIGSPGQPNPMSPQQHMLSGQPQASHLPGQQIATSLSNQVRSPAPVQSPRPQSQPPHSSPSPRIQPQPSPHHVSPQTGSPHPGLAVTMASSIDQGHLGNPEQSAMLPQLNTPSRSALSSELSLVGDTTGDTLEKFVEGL
T2 sequence (Q09472 whole entry): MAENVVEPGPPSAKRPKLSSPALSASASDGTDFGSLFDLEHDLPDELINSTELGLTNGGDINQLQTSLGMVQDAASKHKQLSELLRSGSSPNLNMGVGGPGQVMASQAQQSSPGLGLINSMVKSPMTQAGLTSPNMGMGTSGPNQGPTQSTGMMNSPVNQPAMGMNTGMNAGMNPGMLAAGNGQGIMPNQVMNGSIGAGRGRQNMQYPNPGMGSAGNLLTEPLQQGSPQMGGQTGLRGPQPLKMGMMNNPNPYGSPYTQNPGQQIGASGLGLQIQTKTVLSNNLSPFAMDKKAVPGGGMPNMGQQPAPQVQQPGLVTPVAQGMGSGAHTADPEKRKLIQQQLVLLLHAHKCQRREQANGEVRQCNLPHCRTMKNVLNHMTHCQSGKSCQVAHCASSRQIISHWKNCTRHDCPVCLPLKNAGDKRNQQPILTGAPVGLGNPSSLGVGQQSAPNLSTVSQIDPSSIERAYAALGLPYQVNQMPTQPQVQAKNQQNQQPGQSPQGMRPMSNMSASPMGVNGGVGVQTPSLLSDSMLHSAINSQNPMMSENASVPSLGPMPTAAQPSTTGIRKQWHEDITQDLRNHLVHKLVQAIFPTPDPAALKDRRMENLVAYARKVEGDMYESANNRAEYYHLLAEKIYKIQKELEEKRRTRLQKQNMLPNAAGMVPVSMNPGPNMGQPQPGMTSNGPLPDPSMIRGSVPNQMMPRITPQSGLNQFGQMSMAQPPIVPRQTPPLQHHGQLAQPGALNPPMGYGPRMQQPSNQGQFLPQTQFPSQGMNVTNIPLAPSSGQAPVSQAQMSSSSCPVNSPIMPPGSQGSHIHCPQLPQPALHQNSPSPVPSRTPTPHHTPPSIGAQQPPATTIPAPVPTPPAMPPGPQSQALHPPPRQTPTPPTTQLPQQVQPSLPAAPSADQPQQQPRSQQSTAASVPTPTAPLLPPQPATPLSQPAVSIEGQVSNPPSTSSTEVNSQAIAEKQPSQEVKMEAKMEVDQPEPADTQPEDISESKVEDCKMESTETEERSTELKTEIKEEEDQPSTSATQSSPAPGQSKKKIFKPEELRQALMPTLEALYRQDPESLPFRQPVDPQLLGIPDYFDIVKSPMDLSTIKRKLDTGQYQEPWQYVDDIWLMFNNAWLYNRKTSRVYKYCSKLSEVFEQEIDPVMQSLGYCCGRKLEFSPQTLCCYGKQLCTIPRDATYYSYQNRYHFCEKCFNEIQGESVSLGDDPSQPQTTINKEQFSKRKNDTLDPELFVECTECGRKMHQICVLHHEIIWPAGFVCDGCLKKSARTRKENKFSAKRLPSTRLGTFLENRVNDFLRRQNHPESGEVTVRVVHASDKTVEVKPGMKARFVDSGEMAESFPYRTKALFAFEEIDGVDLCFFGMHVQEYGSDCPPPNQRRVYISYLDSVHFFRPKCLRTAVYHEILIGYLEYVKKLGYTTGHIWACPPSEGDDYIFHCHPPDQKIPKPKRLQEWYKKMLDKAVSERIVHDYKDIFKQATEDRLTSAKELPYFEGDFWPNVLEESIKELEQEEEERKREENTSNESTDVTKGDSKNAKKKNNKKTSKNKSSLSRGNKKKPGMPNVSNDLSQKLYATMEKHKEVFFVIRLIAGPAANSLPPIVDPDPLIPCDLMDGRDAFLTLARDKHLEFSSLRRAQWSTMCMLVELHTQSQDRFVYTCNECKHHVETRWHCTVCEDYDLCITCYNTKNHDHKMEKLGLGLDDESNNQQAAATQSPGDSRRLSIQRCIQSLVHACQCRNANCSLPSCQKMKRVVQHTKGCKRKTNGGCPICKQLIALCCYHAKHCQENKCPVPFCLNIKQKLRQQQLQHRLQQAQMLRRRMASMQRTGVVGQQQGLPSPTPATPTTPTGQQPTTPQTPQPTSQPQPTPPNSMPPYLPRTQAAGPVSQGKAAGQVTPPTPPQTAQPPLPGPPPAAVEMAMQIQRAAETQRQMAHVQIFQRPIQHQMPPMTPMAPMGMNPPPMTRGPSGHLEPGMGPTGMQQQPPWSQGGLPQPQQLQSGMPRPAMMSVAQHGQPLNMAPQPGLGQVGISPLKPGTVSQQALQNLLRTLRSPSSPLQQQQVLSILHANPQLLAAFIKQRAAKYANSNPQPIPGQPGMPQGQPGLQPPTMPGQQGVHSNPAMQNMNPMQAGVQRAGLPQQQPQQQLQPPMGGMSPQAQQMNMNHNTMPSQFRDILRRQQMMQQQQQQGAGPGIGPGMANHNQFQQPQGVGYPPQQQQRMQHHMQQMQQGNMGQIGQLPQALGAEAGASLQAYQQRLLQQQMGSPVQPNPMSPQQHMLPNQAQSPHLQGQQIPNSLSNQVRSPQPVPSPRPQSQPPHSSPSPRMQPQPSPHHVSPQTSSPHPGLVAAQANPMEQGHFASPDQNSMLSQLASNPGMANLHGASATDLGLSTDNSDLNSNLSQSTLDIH

SMILES | DC50 (CBP) [nM] | Dmax (CBP) [%] | Dmax (p300) [%] | DC50 (p300) [nM]
Cn1c(=O)n(C)c2cc(-c3cccc4cc(-c5ccc(C(=O)NCC#Cc6ccc7cnn(C8CCC(=O)NC8=O)c7c6)nc5)ncc34)ccc21 (stereo not shown) [Example A255, 5-(8-(1,3-dimethyl-2-oxo-2,3-dihydro-1H-benzo[d]imidazol-5-yl)isoquinolin-3-yl)-N-(3-(1-(2,6-dioxo-piperidin-3-yl)-1H-indazol-6-yl)prop-2-yn-1-yl)picolinamide] | > 1000 | < 20 | > 80 | 1 to 9.9
Cn1c(=O)n(C)c2c(N3CCC(C)(O)CC3)nc(-c3cccc4cc(-c5ccc(C(=O)NCC#Cc6cc7c(C8CCC(=O)NC8=O)cccc7o6)nc5)ncc34)cc21 (stereo not shown) [Example A258, N-(3-(4-(2,6-dioxo-piperidin-3-yl)benzofuran-2-yl)prop-2-yn-1-yl)-5-(8-(4-(4-hydroxy-4-methylpiperidin-1-yl)-1,3-dimethyl-2-oxo-2,3-dihydro-1H-imidazo[4,5-c]pyridin-6-yl)isoquinolin-3-yl)picolinamide] | > 1000 | < 20 | > 80 | < 1
Cn1c(=O)n(C)c2cc(C3=CC(C)(C)Oc4cc(-c5ccc(C(=O)NCC#Cc6cc7c(C8CCC(=O)NC8=O)cccc7o6)nc5)ncc43)ccc21 (stereo not shown) [Example A259, 5-(4-(1,3-dimethyl-2-oxo-2,3-dihydro-1H-benzo[d]imidazol-5-yl)-2,2-dimethyl-2H-pyrano[3,2-c]pyridin-7-yl)-N-(3-(4-(2,6-dioxopiperidin-3-yl)benzofuran-2-yl)prop-2-yn-1-yl)picolinamide] | > 1000 | < 20 | > 80 | 1 to 9.9
CCn1c(=O)n(C)c2c(N3CCOCC3)nc(-c3cccc4cc(-c5ccc(C(=O)NCC#Cc6cc7c(C8CCC(=O)NC8=O)cccc7o6)nc5)ncc34)cc21 (stereo not shown) [Example A260, N-(3-(4-(2,6-dioxo-piperidin-3-yl)benzofuran-2-yl)prop-2-yn-1-yl)-5-(8-(1-ethyl-3-methyl-4-morpholino-2-oxo-2,3-dihydro-1H-imidazo[4,5-c]pyridin-6-yl)isoquinolin-3-yl)picolinamide] | > 1000 | < 20 | > 80 | < 1
Cn1c(=O)n(C)c2c(C3CC3)cc(-c3cccc4cc(-c5ccc(C(=O)NCC#Cc6cc7c(C8CCC(=O)NC8=O)cccc7o6)nc5)ncc34)cc21 (stereo not shown) [Example A261, 5-(8-(7-cyclopropyl-1,3-dimethyl-2-oxo-2,3-dihydro-1H-benzo[d]imidazol-5-yl)isoquinolin-3-yl)-N-(3-(4-(2,6-dioxopiperidin-3-yl)benzofuran-2-yl)prop-2-yn-1-yl)picolinamide] | > 1000 | < 20 | > 80 | 1 to 9.9
Cn1c(=O)n(C)c2cc(C3=CC(C)(C)Oc4cc(-c5ccc(C(=O)NCC#Cc6ccc7occ(C8CCC(=O)NC8=O)c7c6)nc5)ncc43)ccc21 (stereo not shown) [Example A263, 5-(4-(1,3-dimethyl-2-oxo-2,3-dihydro-1H-benzo[d]imidazol-5-yl)-2,2-dimethyl-2H-pyrano[3,2-c]pyridin-7-yl)-N-(3-(3-(2,6-dioxopiperidin-3-yl)benzofuran-5-yl)prop-2-yn-1-yl)picolinamide] | > 1000 | < 20 | > 80 | 1 to 9.9
Cc1cc(-c2cc3cccc(-c4cc(C(C)C)c5c(c4)n(C)c(=O)n5C)c3cn2)cnc1C(=O)NCC#Cc1ccc2c(c1)c(C1CCC(=O)NC1=O)nn2C (stereo not shown) [Example A269, N-(3-(3-(2,6-dioxopiperidin-3-yl)-1-methyl-1H-indazol-5-yl)prop-2-yn-1-yl)-5-(8-(7-isopropyl-1,3-dimethyl-2-oxo-2,3-dihydro-1H-benzo[d]imidazol-5-yl)iso-quinolin-3-yl)-3-methylpicolinamide] | 10 to 99 | > 80 | > 80 | 1 to 9.9
CC(C)c1cc(N2CCN(C)c3cc(-c4ccc(C(=O)NCC#Cc5cccc(NC6CCC(=O)NC6=O)c5)nc4)ncc32)cc2c1n(C)c(=O)n2C (stereo not shown) [Example A270, N-(3-(3-((2,6-dioxopiperidin-3-yl)amino)phenyl)prop-2-yn-1-yl)-5-(4-(7-isopropyl-1,3-dimethyl-2-oxo-2,3-dihydro-1H-benzo[d]imidazol-5-yl)-1-methyl-1,2,3,4-tetrahydro-pyrido[3,4-b]pyrazin-7-yl)picolinamide] | 1 to 9.9 | 60 to 79 | > 80 | < 1
Cn1c(=O)n(C)c2c(N3CCC(C)(O)CC3)cc(-c3cccc4cc(-c5ccc(C(=O)NCC#Cc6cccc(NC7CCC(=O)NC7=O)c6)nc5)ncc34)cc21 (stereo not shown) [Example A271, N-(3-(3-((2,6-dioxopiperidin-3-yl)amino)phenyl)prop-2-yn-1-yl)-5-(8-(7-(4-hydroxy-4-methylpiperidin-1-yl)-1,3-dimethyl-2-oxo-2,3-dihydro-1H-benzo[d]imidazol-5-yl)isoquinolin-3-yl)picolinamide] | 1 to 9.9 | 60 to 79 | > 80 | < 1
CCc1cc(-c2cccc3cc(-c4ccc(C(=O)NCC#Cc5ccc6ncn(C7CCC(=O)NC7=O)c6c5)nc4)ncc23)c2cc(C)c(=O)n(C)c2c1 (stereo not shown) [Example B2, N-(3-(1-(2,6-Dioxopiperidin-3-yl)-1H-benzo[d]imidazol-6-yl)prop-2-yn-1-yl)-5-(8-(7-ethyl-1,3-dimethyl-2-oxo-1,2-dihydroquinolin-5-yl)isoquinolin-3-yl)picolinamide] | > 1000 | < 20 | 60 to 79 | 1 to 9.9
CCc1cc(-c2cccc3cc(-c4ccc(C(=O)NCC#Cc5cccc(CC6CCC(=O)NC6=O)c5)nc4)ncc23)c2cc(C)c(=O)n(C)c2c1 (stereo not shown) [Example B4, N-(3-(3-((2,6-Dioxopiperidin-3-yl)methyl)phenyl)prop-2-yn-1-yl)-5-(8-(7-ethyl-1,3-dimethyl-2-oxo-1,2-dihydroquinolin-5-yl)isoquinolin-3-yl)picolinamide] | 100 to 999 | 40 to 59 | 60 to 79 | 10 to 99
CCc1cc(-c2cccc3cc(-c4ccc(C(=O)NCC#Cc5ccc6cnn(C7CCC(=O)NC7=O)c6c5)nc4)ncc23)c2cc(C)c(=O)n(C)c2c1 (stereo not shown) [Example B5, N-(3-(1-(2,6-Dioxopiperidin-3-yl)-1H-indazol-6-yl)prop-2-yn-1-yl)-5-(8-(7-ethyl-1,3-dimethyl-2-oxo-1,2-dihydroquinolin-5-yl)isoquinolin-3-yl)picolinamide] | > 1000 | < 20 | > 80 | 1 to 9.9
CCc1cc(-c2cccc3cc(-c4ccc(C(=O)NCC#Cc5cc(NC6CCC(=O)NC6=O)nn5C)nc4)ncc23)c2cc(C)c(=O)n(C)c2c1 (stereo not shown) [Example B7, N-(3-(3-((2,6-Dioxopiperidin-3-yl)amino)-1-methyl-1H-pyrazol-5-yl)prop-2-yn-1-yl)-5-(8-(7-ethyl-1,3-dimethyl-2-oxo-1,2-dihydroquinolin-5-yl)isoquinolin-3-yl)picolinamide] | > 1000 | < 20 | 20 to 39 | 1 to 9.9

Source: patent US20250114345A1, “COMPOUNDS AND COMPOSITIONS AS CBP/P300 DEGRADERS AND USES THEREOF” (Oncopia Therapeutics, Inc. d/b/a/ SK Life Science Labs, priority 2023, published 2025)
